In PMC8635029 (Frontiers in Pharmacology, 2021):

Columns and labels:
C57BL/6J mice = test: Hot-plate test; assay type: in vivo; settings: hot-plate test ED50 / writhing test ED50
Description: The hot-plate test was performed according to previous reports ([DeWire et al., 2013]; [Hill et al., 2018a]; [Wang et al., 2018]). Female C57BL/6J mice were individually placed on a hot plate at 56°C and the latency to licking or jumping was then recorded. A cut-off time of 30 s was imposed in order to prevent tissue damage. Before drug administration, the latency of each mouse was measured and defined as the pre-drug value. The animals with a pre-drug value of greater than 20 s were excluded.

Dopamine D1 = biological target: T1, Dopamine D1 (Homo sapiens, UniProt P21728); test: In vitro SafetyScreen panel; assay type: binding
T1 construct: Eurofins Discovery (contract panel) Item PP223
T1 sequence (P21728 whole entry): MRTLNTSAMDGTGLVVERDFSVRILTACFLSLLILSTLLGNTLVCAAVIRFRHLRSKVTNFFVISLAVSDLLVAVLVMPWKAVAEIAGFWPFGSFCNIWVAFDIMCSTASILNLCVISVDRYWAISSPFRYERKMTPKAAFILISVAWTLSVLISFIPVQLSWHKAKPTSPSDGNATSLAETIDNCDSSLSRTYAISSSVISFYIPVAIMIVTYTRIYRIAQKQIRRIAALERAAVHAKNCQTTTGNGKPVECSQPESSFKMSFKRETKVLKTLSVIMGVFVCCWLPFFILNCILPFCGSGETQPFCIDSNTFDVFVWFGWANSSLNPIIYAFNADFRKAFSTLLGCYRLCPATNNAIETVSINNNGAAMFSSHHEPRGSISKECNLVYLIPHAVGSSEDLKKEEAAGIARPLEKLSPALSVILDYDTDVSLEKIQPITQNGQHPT
Description: (§1) In vitro off-target pharmacological activities of HSK21542 were evaluated on 86 targets using a SafetyScreen panel (Item PP223, target selectivity panel) and the corresponding methods could be found at https://www.eurofinsdiscoveryservices.com/.

Muscarinic M4 = biological target: T2, Muscarinic M4 (Homo sapiens, UniProt P08173); test: In vitro SafetyScreen panel; assay type: binding
T2 construct: Eurofins Discovery (outsourced panel) PP223
Description: as §1

[1] = biological target: T3, Serotonin (5-Hydroxytryptamine) 5-HT2B (Homo sapiens, UniProt P41595); test: In vitro SafetyScreen panel; assay type: binding
T3 construct: Eurofins Discovery (contract panel) PP223
Description: as §1

[2] = biological target: T4, Serotonin (5-Hydroxytryptamine) 5-HT1A (Homo sapiens, UniProt P08908); test: In vitro SafetyScreen panel; assay type: binding
T4 construct: Eurofins Discovery (outsourced panel) PP223
Description: as §1

Melanocortin MC1 = biological target: T5, Melanocortin MC1 (Homo sapiens, UniProt Q01726); test: In vitro SafetyScreen panel; assay type: binding
T5 construct: Eurofins Discovery (contract panel) Item PP223
Description: as §1

Chemokine CCR1 = biological target: T6, Chemokine CCR1 (Homo sapiens, UniProt P32246); test: In vitro SafetyScreen panel; assay type: binding
T6 construct: Eurofins Discovery (contract panel) PP223
Description: as §1

[3] = biological target: T7, Transporter, Norepinephrine (NET) (Homo sapiens, UniProt P23975); test: In vitro SafetyScreen panel; assay type: binding
T7 construct: Eurofins Discovery (contract panel) PP223
Description: as §1

Histamine H1 = biological target: T8, Histamine H1 (Homo sapiens, UniProt P35367); test: In vitro SafetyScreen panel; assay type: binding
T8 construct: Eurofins Discovery (contract panel) Item PP223
T8 sequence (P35367 whole entry): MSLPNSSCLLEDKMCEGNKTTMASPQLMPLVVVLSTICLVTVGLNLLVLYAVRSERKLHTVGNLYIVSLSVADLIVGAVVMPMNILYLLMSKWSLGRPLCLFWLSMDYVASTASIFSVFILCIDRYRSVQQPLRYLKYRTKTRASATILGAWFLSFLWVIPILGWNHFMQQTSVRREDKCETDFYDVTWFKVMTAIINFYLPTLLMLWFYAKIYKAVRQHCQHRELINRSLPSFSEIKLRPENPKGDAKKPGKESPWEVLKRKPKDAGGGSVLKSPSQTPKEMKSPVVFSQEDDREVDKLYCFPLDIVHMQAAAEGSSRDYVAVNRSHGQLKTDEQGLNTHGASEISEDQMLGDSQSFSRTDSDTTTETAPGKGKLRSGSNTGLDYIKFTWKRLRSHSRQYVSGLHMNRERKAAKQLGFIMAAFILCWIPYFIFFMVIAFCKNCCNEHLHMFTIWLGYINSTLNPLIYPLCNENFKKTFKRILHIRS
Description: as §1

Endothelin ETA = biological target: T9, Endothelin ETA (Homo sapiens, UniProt P25101); test: In vitro SafetyScreen panel; assay type: binding
T9 construct: Eurofins Discovery (contract panel) Item PP223
Description: as §1

[4] = biological target: T10, Glutamate, Metabotropic, mGlu5 (Homo sapiens, UniProt P41594); test: In vitro SafetyScreen panel; assay type: binding
T10 construct: Eurofins Discovery (contract panel) Item PP223
Description: as §1

Dopamine D2S = biological target: T11, Dopamine D2S (Homo sapiens, UniProt P14416); test: In vitro SafetyScreen panel; assay type: binding
T11 construct: Eurofins Discovery (contract panel) Item PP223
Description: as §1

Opiate μ (OP3, MOP) = biological target: T12, Opiate μ (OP3, MOP) (Homo sapiens, UniProt P35372); test: In vitro SafetyScreen panel; assay type: binding
T12 construct: Eurofins Discovery (outsourced panel) PP223
Description: as §1

Calcium Channel N-Type = biological target: T13, Calcium Channel N-Type (Rattus norvegicus, UniProt Q02294); test: In vitro SafetyScreen panel; assay type: binding
T13 construct: Eurofins Discovery (contract panel) PP223
Description: as §1

[5] = biological target: T14, Serotonin (5-Hydroxytryptamine) 5-HT3 (Homo sapiens, UniProt P46098); test: In vitro SafetyScreen panel; assay type: binding
T14 construct: Eurofins Discovery (contract panel) PP223
Description: as §1

[6] = biological target: T15, Leukotriene, Cysteinyl CysLT1 (Homo sapiens, UniProt Q9Y271); test: In vitro SafetyScreen panel; assay type: binding
T15 construct: Eurofins Discovery (contract panel) Item PP223
T15 sequence (Q9Y271 whole entry): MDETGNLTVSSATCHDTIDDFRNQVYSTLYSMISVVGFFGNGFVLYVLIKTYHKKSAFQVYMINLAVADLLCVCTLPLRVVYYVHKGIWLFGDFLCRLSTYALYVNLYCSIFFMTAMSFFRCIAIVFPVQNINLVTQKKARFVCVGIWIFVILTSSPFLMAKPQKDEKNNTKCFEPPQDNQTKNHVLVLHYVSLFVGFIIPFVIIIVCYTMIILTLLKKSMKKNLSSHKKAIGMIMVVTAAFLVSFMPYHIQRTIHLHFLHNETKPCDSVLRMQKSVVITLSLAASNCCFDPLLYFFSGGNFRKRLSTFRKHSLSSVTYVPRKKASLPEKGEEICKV
Description: as §1

[7] = biological target: T16, Platelet Activating Factor (PAF) (Homo sapiens, UniProt P25105); test: In vitro SafetyScreen panel; assay type: binding
T16 construct: Eurofins Discovery (outsourced panel) PP223
Description: as §1

GABAB1A = biological target: T17, GABAB1A (Homo sapiens, UniProt Q9UBS5); test: In vitro SafetyScreen panel; assay type: binding
T17 construct: Eurofins Discovery (contract panel) Item PP223
Description: as §1

Bradykinin B2 = biological target: T18, Bradykinin B2 (Homo sapiens, UniProt P30411); test: In vitro SafetyScreen panel; assay type: binding
T18 construct: Eurofins Discovery (contract panel) PP223
Description: as §1

Cannabinoid CB2 = biological target: T19, Cannabinoid CB2 (Homo sapiens, UniProt P34972); test: In vitro SafetyScreen panel; assay type: binding
T19 construct: Eurofins Discovery (contract panel) PP223
Description: as §1

Estrogen ERα = biological target: T20, Estrogen ERα (Homo sapiens, UniProt P03372); test: In vitro SafetyScreen panel; assay type: binding
T20 construct: Eurofins Discovery (contract panel) Item PP223
Description: as §1

Histamine H2 = biological target: T21, Histamine H2 (Homo sapiens, UniProt P25021); test: In vitro SafetyScreen panel; assay type: binding
T21 construct: Eurofins Discovery (contract panel) Item PP223
Description: as §1

[8] = biological target: T22, Serotonin (5-Hydroxytryptamine) 5-HT2C (Homo sapiens, UniProt P28335); test: In vitro SafetyScreen panel; assay type: binding
T22 construct: Eurofins Discovery (contract panel) PP223
Description: as §1

Adrenergic α1A = biological target: T23, Adrenergic α1A (Rattus norvegicus, UniProt P43140); test: In vitro SafetyScreen panel; assay type: binding
T23 construct: Eurofins Discovery (contract panel) PP223
Description: as §1

Adrenergic β2 = biological target: T24, Adrenergic β2 (Homo sapiens, UniProt P07550); test: In vitro SafetyScreen panel; assay type: binding
T24 construct: Eurofins Discovery (contract panel) PP223
Description: as §1

Adenosine A2A = biological target: T25, Adenosine A2A (Homo sapiens, UniProt P29274); test: In vitro SafetyScreen panel; assay type: binding
T25 construct: Eurofins Discovery (contract panel) PP223
Description: as §1

Muscarinic M1 = biological target: T26, Muscarinic M1 (Homo sapiens, UniProt P11229); test: In vitro SafetyScreen panel; assay type: binding
T26 construct: Eurofins Discovery (outsourced panel) PP223
Description: as §1

Adrenergic α1B = biological target: T27, Adrenergic α1B (Rattus norvegicus, UniProt P15823); test: In vitro SafetyScreen panel; assay type: binding
T27 construct: Eurofins Discovery (contract panel) PP223
T27 sequence (P15823 whole entry): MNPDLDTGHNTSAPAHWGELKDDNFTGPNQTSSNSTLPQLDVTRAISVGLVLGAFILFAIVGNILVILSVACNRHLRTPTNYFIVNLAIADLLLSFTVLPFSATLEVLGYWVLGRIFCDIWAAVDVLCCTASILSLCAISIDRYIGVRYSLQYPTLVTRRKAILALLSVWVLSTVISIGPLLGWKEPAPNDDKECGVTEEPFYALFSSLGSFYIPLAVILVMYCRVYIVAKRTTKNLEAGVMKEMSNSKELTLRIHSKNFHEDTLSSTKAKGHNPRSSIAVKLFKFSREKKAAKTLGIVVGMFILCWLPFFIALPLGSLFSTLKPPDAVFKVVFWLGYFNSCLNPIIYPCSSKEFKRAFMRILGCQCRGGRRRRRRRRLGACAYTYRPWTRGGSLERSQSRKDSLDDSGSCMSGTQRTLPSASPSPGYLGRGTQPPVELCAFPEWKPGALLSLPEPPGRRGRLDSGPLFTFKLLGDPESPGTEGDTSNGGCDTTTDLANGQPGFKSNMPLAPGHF
Description: as §1

Melanocortin MC4 = biological target: T28, Melanocortin MC4 (Homo sapiens, UniProt P32245); test: In vitro SafetyScreen panel; assay type: binding
T28 construct: Eurofins Discovery (contract panel) Item PP223
Description: as §1

Angiotensin AT1 = biological target: T29, Angiotensin AT1 (Homo sapiens, UniProt P30556); test: In vitro SafetyScreen panel; assay type: binding
T29 construct: Eurofins Discovery (contract panel) PP223
Description: as §1

[9] = biological target: T30, Cholecystokinin CCK1 (CCKA) (Homo sapiens, UniProt P32238); test: In vitro SafetyScreen panel; assay type: binding
T30 construct: Eurofins Discovery (contract panel) PP223
Description: as §1

Tachykinin NK1 = biological target: T31, Tachykinin NK1 (Homo sapiens, UniProt P25103); test: In vitro SafetyScreen panel; assay type: binding
T31 construct: Eurofins Discovery (contract panel) PP223
Description: as §1

Muscarinic M3 = biological target: T32, Muscarinic M3 (Homo sapiens, UniProt P20309); test: In vitro SafetyScreen panel; assay type: binding
T32 construct: Eurofins Discovery (outsourced panel) PP223
T32 sequence (P20309 whole entry): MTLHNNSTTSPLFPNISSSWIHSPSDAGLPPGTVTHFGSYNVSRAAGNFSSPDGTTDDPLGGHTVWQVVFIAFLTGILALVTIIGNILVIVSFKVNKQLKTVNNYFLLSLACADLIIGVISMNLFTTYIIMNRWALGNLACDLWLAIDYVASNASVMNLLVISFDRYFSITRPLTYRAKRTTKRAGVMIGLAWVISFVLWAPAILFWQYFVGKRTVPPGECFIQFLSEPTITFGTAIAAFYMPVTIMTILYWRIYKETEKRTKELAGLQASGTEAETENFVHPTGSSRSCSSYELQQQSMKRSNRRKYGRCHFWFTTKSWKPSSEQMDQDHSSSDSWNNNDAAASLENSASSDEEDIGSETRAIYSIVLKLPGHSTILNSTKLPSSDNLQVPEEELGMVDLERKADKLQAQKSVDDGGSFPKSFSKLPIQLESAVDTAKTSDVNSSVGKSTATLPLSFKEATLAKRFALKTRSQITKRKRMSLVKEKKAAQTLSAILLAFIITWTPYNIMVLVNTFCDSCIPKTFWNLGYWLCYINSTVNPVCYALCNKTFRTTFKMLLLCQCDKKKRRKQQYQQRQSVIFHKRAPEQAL
Description: as §1

[10] = biological target: T33, Transporter, Serotonin (5-Hydroxytryptamine) (SERT) (Homo sapiens, UniProt P31645); test: In vitro SafetyScreen panel; assay type: binding
T33 construct: Eurofins Discovery (contract panel) PP223
T33 sequence (P31645 whole entry): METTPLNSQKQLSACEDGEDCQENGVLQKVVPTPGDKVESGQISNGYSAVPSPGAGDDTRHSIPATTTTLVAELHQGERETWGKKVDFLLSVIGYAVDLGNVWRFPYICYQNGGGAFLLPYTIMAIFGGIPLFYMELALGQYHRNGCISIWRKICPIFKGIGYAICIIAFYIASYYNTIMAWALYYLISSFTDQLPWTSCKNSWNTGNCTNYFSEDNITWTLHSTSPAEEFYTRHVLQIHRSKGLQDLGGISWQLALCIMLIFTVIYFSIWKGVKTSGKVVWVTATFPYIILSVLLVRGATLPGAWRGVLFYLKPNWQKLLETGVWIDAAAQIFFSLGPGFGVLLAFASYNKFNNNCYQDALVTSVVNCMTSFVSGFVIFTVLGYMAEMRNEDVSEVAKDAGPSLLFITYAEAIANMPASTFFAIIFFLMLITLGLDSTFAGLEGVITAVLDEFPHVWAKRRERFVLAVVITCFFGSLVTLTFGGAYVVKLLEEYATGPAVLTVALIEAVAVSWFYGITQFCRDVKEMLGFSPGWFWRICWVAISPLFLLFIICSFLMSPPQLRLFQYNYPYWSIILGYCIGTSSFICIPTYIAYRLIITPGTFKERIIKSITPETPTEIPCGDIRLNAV
Description: as §1

Progesterone PR-B = biological target: T34, Progesterone PR-B (Homo sapiens, UniProt P06401); test: In vitro SafetyScreen panel; assay type: binding
T34 construct: Eurofins Discovery (outsourced panel) PP223
T34 sequence (P06401 whole entry): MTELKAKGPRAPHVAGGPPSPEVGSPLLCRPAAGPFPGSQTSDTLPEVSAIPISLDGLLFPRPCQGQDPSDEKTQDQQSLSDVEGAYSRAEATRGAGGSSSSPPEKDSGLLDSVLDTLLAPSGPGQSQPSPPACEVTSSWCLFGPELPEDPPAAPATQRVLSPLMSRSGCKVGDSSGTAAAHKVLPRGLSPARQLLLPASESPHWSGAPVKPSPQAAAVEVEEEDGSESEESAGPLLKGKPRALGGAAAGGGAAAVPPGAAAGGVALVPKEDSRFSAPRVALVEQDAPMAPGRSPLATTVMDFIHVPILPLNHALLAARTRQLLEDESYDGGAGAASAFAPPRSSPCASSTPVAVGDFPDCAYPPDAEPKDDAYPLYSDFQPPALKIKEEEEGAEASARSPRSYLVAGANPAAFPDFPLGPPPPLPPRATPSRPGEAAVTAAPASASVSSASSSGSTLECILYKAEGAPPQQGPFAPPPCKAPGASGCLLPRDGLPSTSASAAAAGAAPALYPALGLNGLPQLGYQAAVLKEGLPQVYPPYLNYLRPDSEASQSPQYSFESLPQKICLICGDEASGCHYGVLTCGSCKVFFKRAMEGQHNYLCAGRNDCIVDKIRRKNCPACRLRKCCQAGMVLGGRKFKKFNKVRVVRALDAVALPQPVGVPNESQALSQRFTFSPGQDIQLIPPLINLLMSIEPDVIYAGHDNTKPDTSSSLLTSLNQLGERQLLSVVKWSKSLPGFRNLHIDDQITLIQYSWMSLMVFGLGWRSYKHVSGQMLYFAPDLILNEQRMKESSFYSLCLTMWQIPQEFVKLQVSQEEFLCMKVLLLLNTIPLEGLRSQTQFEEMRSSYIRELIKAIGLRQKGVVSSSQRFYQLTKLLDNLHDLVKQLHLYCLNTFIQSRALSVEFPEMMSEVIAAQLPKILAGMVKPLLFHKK
Description: as §1

Adrenergic α1D = biological target: T35, Adrenergic α1D (Homo sapiens, UniProt P25100); test: In vitro SafetyScreen panel; assay type: binding
T35 construct: Eurofins Discovery (contract panel) PP223
Description: as §1

Glucocorticoid = biological target: T36, Glucocorticoid (Homo sapiens, UniProt P04150); test: In vitro SafetyScreen panel; assay type: binding
T36 construct: Eurofins Discovery (contract panel) Item PP223
T36 sequence (P04150 whole entry): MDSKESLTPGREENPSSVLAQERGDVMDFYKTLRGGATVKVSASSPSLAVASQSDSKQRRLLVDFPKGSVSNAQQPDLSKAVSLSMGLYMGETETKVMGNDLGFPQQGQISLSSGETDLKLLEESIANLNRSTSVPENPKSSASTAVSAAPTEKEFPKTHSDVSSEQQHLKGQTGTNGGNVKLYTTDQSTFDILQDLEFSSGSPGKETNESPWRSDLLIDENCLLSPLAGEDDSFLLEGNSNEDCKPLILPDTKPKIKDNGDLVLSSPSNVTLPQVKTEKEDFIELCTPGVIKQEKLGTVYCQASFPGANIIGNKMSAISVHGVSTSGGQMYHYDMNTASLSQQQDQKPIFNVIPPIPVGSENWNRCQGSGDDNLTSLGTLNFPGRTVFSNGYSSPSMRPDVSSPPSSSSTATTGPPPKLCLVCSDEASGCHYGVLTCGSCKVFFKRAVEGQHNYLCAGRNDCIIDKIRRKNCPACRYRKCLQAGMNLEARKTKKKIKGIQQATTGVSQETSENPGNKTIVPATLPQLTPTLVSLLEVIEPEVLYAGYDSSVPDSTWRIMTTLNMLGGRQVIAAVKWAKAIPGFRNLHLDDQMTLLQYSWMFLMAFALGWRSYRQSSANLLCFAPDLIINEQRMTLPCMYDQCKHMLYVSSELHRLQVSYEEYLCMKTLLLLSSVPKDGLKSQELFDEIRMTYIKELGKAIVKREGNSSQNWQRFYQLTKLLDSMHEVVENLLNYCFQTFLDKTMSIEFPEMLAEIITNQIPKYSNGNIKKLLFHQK
Description: as §1

Dopamine D2L = biological target: T37, Dopamine D2L (Homo sapiens, UniProt P14416); test: In vitro SafetyScreen panel; assay type: binding
T37 construct: Eurofins Discovery (contract panel) Item PP223
Description: as §1

CC(=O)N1CC2(CCN(C(=O)[C@@H](CCCCN)NC(=O)[C@@H](CC(C)C)NC(=O)[C@@H](Cc3ccccc3)NC(=O)[C@H](N)Cc3ccccc3)CC2)C1 [HSK21542, 7-(D-phenylalanyl-D-phenylalanyl-D-leucyl-D-lysyl)-2-acetyl-2,7-diazaspiro (3.5)nonane]
Therapeutic index (C57BL/6J mice): 116.6 | inhibition at 10 µM (Dopamine D1): 3% | inhibition at 10 µM (Muscarinic M4): 3% | inhibition at 10 µM [1]: 0% | inhibition at 10 µM [2]: 1% | inhibition at 10 µM (Melanocortin MC1): -3% | inhibition at 10 µM (Chemokine CCR1): -4% | inhibition at 10 µM [3]: 19% | inhibition at 10 µM (Histamine H1): 4% | inhibition at 10 µM (Endothelin ETA): 4% | inhibition at 10 µM [4]: 19% | inhibition at 10 µM (Dopamine D2S): -15% | inhibition at 10 µM (Opiate μ (OP3, MOP)): 0% | inhibition at 10 µM (Calcium Channel N-Type): -3% | inhibition at 10 µM [5]: 14% | inhibition at 10 µM [6]: 8% | inhibition at 10 µM [7]: 10% | inhibition at 10 µM (GABAB1A): -8% | inhibition at 10 µM (Bradykinin B2): -3% | inhibition at 10 µM (Cannabinoid CB2): -30% | inhibition at 10 µM (Estrogen ERα): 0% | inhibition at 10 µM (Histamine H2): 8% | inhibition at 10 µM [8]: 0% | inhibition at 10 µM (Adrenergic α1A): 12% | inhibition at 10 µM (Adrenergic β2): 3% | inhibition at 10 µM (Adenosine A2A): 3% | inhibition at 10 µM (Muscarinic M1): 9% | inhibition at 10 µM (Adrenergic α1B): 3% | inhibition at 10 µM (Melanocortin MC4): 27% | inhibition at 10 µM (Angiotensin AT1): -7% | inhibition at 10 µM [9]: 5% | inhibition at 10 µM (Tachykinin NK1): 21% | inhibition at 10 µM (Muscarinic M3): -3% | inhibition at 10 µM [10]: 7% | inhibition at 10 µM (Progesterone PR-B): -1% | inhibition at 10 µM (Adrenergic α1D): -1% | inhibition at 10 µM (Glucocorticoid): 8% | inhibition at 10 µM (Dopamine D2L): -6%
